Results from PMC4381330, “Identification of a novel selective agonist of PPARγ with no promotion of adipogenesis and less inhibition of osteoblastogenesis” (Scientific Reports, 2015).

Experiments:
3T3-L1 preadipocytes = test: Adipogenic differentiation of 3T3-L1 preadipocytes (Oil red O, triglyceride content); type: cell-based, mouse
Protocol: (§1) 3T3-L1 preadipocytes were grown to confluency in DMEM containing 10% CS. At 2 days post-confluency, the cells were stimulated with differentiation medium (DMEM containing 10% FBS, 10 μg/mL insulin, 1 μM dexamethasone, and 0.5 mM IBMX) for 48 h. Then, the cells were exposed in post-differentiation-maintaining medium (DMEM containing 10% FBS and 10 μg/mL insulin) for a further 48 h, which was replaced with expansion medium (DMEM containing 10% FBS) every 2 days after then. Compounds were added to the post-differentiation and expansion medium. At day 4, the cells were harvested for RNA preparation. At Day 8, the cells were fixed with 10% formaldehyde and stained with Oil red O solution. After washing with water, photos were taken. Solubilized dye was quantified at 550 nm. In addition, total triglyceride of the cells was measured by a total TG measurement kit (Applygene, China). Experiments were performed at least three times.

MC3T3-E1 preosteoblasts = test: Osteoblastic differentiation of MC3T3-E1 cells (Alizarin red S, Alp activity); type: cell-based; conditions: F12016 1, 10, 30 μM
Protocol: (§2) MC3T3-E1 cells were cultured in α-MEM to confluency in 24-well plates and then cultured in differentiation medium (α-MEM supplemented with 200 μM ascorbic acid and 10 mM β-glycerophosphate) for 7, 14, and 21 days, which was replaced every 3 days. The cells were treated with DMSO, rosiglitazone, or F12016 at the start of differentiation. At day 8, 15 and 22, total RNA was isolated, and real-time PCR was performed as described below.
Mature osteoblasts were stained with Alizarin red S and Alp activity were measured at day 22. In brief, cells were fixed with 75% ethanol and stained with 40 mM Alizarin red S solution (pH 4.1–4.3) for 10 min. For Alp assay, the cells were harvested and sonicated on ice with two 30s-pulses. Supernatant of lysate was incubated with isopyknic 1.0 mg/ml pNPP (Sigma–aldrich) solution (1 M diethanolamine buffer, 0.5 mM magnesium chloride) for 30 min at 37°C. The reaction was measured at 405 nm. Relative ALP activity was normalized to the protein concentration.

[1] = tested on: PPARγ target genes in differentiating 3T3-L1 cells; test: Expression of adipogenesis-related and PPARγ-responsive genes in differentiating 3T3-L1 adipocytes (qPCR); type: cell-based, mouse
Protocol: as §1
(§3) Total RNA was extracted using TRIzol reagent (Invitrogen). First-strand cDNA was synthesized from the total RNA using a reverse transcriptional kit (TransGen). Quantitative PCR with SYBR Green (Roche Diagnostics, Lewes, UK) was performed on a Stratagene MX3000P real-time PCR system (Agilent). Melting curves were obtained, and the specificity of PCR products was checked on agarose gels. Relative mRNA expression was determined by the ΔΔCt method and normalized to GAPDH mRNA levels.

[2] = tested on: osteoblast marker genes in MC3T3-E1 cells; design: method as in PMID 21892191; conditions: rosiglitazone 10 μM; cited from earlier work
diabetic KKAy mice = test: Diabetic KKAy mice, 21 days treatment (fasting blood glucose, OGTT, ITT, body weight); conditions: after 21 days, F12016 75 mg/kg, rosiglitazone 5 mg/kg
Protocol: Fasting blood glucose was measured with Onetoch Ultra Teststrip (Johnson & Johnson) at day 0, 3, 7, 14, 21, and body weight were monitored during these days.
After 14 days of treatment, oral glucose tolerance test (OGTT) was performed. Mice were fasted for 6 h with free access to water. 2 g/kg of glucose was given by gavage and blood glucose was measured at 0, 30, 60, 90, and 120 min.
After 21 days of feeding, insulin tolerance test (ITT) was carried out. Mice were fasted for 4 h before being injected 1 U/kg of recombinant human insulin (Novo Nordisk) subcutaneously, and blood glucose was measured at 0, 40, 90, and 120 min after insulin injection.

[3] = tested on: osteoblast marker genes in MC3T3-E1 cells; test: Expression of osteoblast marker genes in MC3T3-E1 cells (qPCR); type: cell-based
Protocol: as §2, §3

PPARγ LBD mutants = type: cell-based, human; conditions: compared with wild-type PPARγ LBD
Protocol: All chemicals were purchased from Sigma-Aldrich (St. Louis, MO, USA). All medium and serum were obtained from Gibco (Invitrogen). […] Mutations in pBIND-PPARγ-LBD were created by site-directed mutagenesis using the Fast Mutagenesis System (TransGen Biotech, Beijing, China).
The determination of nuclear receptor activation was performed as previously. Briefly, HEK293T cells were transfected with GAL4-pGL4-luc reporter plasmid and pBIND-PPARγ-LBD expression plasmid using Lipofectamine 2000 (Invitrogen) for 6 h before treatment with compounds for 20–24 h. Activity was determined by the Luciferase Assay System (Promega).

| SMILES | effect of co-incubation on rosiglitazone-induced adipogenesis (3T3-L1 preadipocytes; GW9662 20 μM plus RGZ 10 μM) | alkaline phosphatase (Alp) activity (MC3T3-E1 preosteoblasts) | mineralization (Alizarin Red S) (MC3T3-E1 preosteoblasts) | mRNA levels of 11β-HSD1 [1] | expression of fatty acid synthase (Fasn) ([1]; both compounds to a similar extent) | expression of RANKL in differentiated MC3T3-E1 cells [2] | blood glucose after insulin injection (ITT) (diabetic KKAy mice; insulin 1 IU/kg) | average body weight (diabetic KKAy mice; vs vehicle) | intracellular triglyceride (TG) content (3T3-L1 preadipocytes; 6 days of stimulation) | lipid accumulation / intracellular lipid droplets (Oil red O staining) (3T3-L1 preadipocytes; RGZ 0.1, 1, 10 μM, F12016 1, 10, 30 μM) | expression of Alp and Col1 ([3]; 7 days) | expression of RANKL ([3]; 7 days, rosiglitazone 1 μM, compared with control) | expression of Ibsp and Bglap ([3]; Ibsp 14 days, Bglap 21 days) | activation of S289A, H323A, H449A and Y473A mutants (PPARγ LBD mutants) |
| --- | --- | --- | --- | --- | --- | --- | --- | --- | --- | --- | --- | --- | --- | --- |
| O=C(Nc1ccccc1)c1cc([N+](=O)[O-])ccc1Cl [GW9662, reference compound] | weakened | – | – | – | – | – | – | – | – | – | – | – | – | – |
| CN(CCOc1ccc(CC2SC(=O)NC2=O)cc1)c1ccccn1 (centres unmarked) [rosiglitazone, reference compound] | – | significantly reduced alkaline phosphatase (Alp) activity | impaired calcification of bone cells | similarly decreased the mRNA levels | upregulated expression | reduced expression of RANKL | significantly reduced blood glucose | showed weight gain in a certain extent | significant increase | significant increase in Oil red O staining | reduced expressions | not significantly changed | reduced expressions | nearly abolished |
